In PubChem BioAssay (NCI):
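Cultured in 96-well plates, cells were exposed to test compound for 48 hours across five concentrations. TGI: total growth inhibition.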

Experiments:
Assay in all cases: growth of human tumour cells (NCI), 48 h
786-0 renal = tested on: 786-0 renal
A498 renal = tested on: A498 renal
A549 NSCLC = tested on: A549 NSCLC
ACHN renal = tested on: ACHN renal
BT-549 breast = tested on: BT-549 breast
CAKI-1 renal = tested on: CAKI-1 renal
CCRF-CEM leukemia = tested on: CCRF-CEM leukemia
COLO 205 colon = tested on: COLO 205 colon
DU-145 prostate = tested on: DU-145 prostate
EKVX NSCLC = tested on: EKVX NSCLC
HCC-2998 colon = tested on: HCC-2998 colon
HCT-116 colon = tested on: HCT-116 colon
HCT-15 colon = tested on: HCT-15 colon
HL-60(TB) leukemia = tested on: HL-60(TB) leukemia
HOP-62 NSCLC = tested on: HOP-62 NSCLC
HOP-92 NSCLC = tested on: HOP-92 NSCLC
HS 578T breast = tested on: HS 578T breast
HT29 colon = tested on: HT29 colon
IGROV1 ovarian = tested on: IGROV1 ovarian
K-562 leukemia = tested on: K-562 leukemia
KM12 colon = tested on: KM12 colon
LOX IMVI melanoma = tested on: LOX IMVI melanoma
M14 melanoma = tested on: M14 melanoma
MALME-3M melanoma = tested on: MALME-3M melanoma
MCF7 breast = tested on: MCF7 breast
MDA-MB-231 breast = tested on: MDA-MB-231 breast
MDA-MB-435 = tested on: MDA-MB-435
MDA-N = tested on: MDA-N
MOLT-4 leukemia = tested on: MOLT-4 leukemia
NCI-H226 lung = tested on: NCI-H226 lung
NCI-H23 lung = tested on: NCI-H23 lung
NCI-H460 lung = tested on: NCI-H460 lung
NCI-H522 lung = tested on: NCI-H522 lung
NCI/ADR-RES ovarian = tested on: NCI/ADR-RES ovarian
OVCAR-3 ovarian = tested on: OVCAR-3 ovarian
OVCAR-4 ovarian = tested on: OVCAR-4 ovarian
OVCAR-5 ovarian = tested on: OVCAR-5 ovarian
OVCAR-8 ovarian = tested on: OVCAR-8 ovarian
PC-3 prostate = tested on: PC-3 prostate
RPMI-8226 leukemia = tested on: RPMI-8226 leukemia
RXF 393 renal = tested on: RXF 393 renal
SF-268 CNS = tested on: SF-268 CNS
SF-295 CNS = tested on: SF-295 CNS
SF-539 CNS = tested on: SF-539 CNS
SK-MEL-2 melanoma = tested on: SK-MEL-2 melanoma
SK-MEL-28 melanoma = tested on: SK-MEL-28 melanoma
SK-MEL-5 melanoma = tested on: SK-MEL-5 melanoma
SN12C renal = tested on: SN12C renal
SNB-19 CNS = tested on: SNB-19 CNS
SNB-75 CNS = tested on: SNB-75 CNS
SR leukemia = tested on: SR leukemia
SW-620 colon = tested on: SW-620 colon
T-47D breast = tested on: T-47D breast
TK-10 renal = tested on: TK-10 renal
U251 CNS = tested on: U251 CNS
UACC-257 melanoma = tested on: UACC-257 melanoma
UACC-62 melanoma = tested on: UACC-62 melanoma
UO-31 renal = tested on: UO-31 renal
SK-OV-3 ovarian = tested on: SK-OV-3 ovarian

Compound: CN1CCN(c2cc3[nH]c4cc(O)cc(O)c4c(=O)c3cc2N)CC1
- TGI (786-0 renal): > 100 µM
- TGI (A498 renal): 73.2 µM
- TGI (A549 NSCLC): > 100 µM
- TGI (ACHN renal): > 100 µM
- TGI (BT-549 breast): 95.1 µM
- TGI (CAKI-1 renal): 87 µM
- TGI (CCRF-CEM leukemia): 32.9 µM
- TGI (COLO 205 colon): 32 µM
- TGI (DU-145 prostate): > 100 µM
- TGI (EKVX NSCLC): 87.9 µM
- TGI (HCC-2998 colon): 45.7 µM
- TGI (HCT-116 colon): > 100 µM
- TGI (HCT-15 colon): > 100 µM
- TGI (HL-60(TB) leukemia): > 100 µM
- TGI (HOP-62 NSCLC): > 100 µM
- TGI (HOP-92 NSCLC): 44 µM
- TGI (HS 578T breast): > 100 µM
- TGI (HT29 colon): 63.6 µM
- TGI (IGROV1 ovarian): 72.5 µM
- TGI (K-562 leukemia): 36.1 µM
- TGI (KM12 colon): 71.7 µM
- TGI (LOX IMVI melanoma): 41.5 µM
- TGI (M14 melanoma): > 100 µM
- TGI (MALME-3M melanoma): 67.4 µM
- TGI (MCF7 breast): 45.8 µM
- TGI (MDA-MB-231 breast): 3.32 µM
- TGI (MDA-MB-435): 42.4 µM
- TGI (MDA-N): 69 µM
- TGI (MOLT-4 leukemia): 4.58 µM
- TGI (NCI-H226 lung): 5.25 µM
- TGI (NCI-H23 lung): > 100 µM
- TGI (NCI-H460 lung): > 100 µM
- TGI (NCI-H522 lung): 63.5 µM
- TGI (NCI/ADR-RES ovarian): > 100 µM
- TGI (OVCAR-3 ovarian): 54.9 µM
- TGI (OVCAR-4 ovarian): 69.5 µM
- TGI (OVCAR-5 ovarian): > 100 µM
- TGI (OVCAR-8 ovarian): > 100 µM
- TGI (PC-3 prostate): 52.7 µM
- TGI (RPMI-8226 leukemia): 49.2 µM
- TGI (RXF 393 renal): 49 µM
- TGI (SF-268 CNS): 52.5 µM
- TGI (SF-295 CNS): > 100 µM
- TGI (SF-539 CNS): 17.4 µM
- TGI (SK-MEL-2 melanoma): 70.7 µM
- TGI (SK-MEL-28 melanoma): 83.4 µM
- TGI (SK-MEL-5 melanoma): 50.1 µM
- TGI (SN12C renal): 3.43 µM
- TGI (SNB-19 CNS): > 100 µM
- TGI (SNB-75 CNS): 45.1 µM
- TGI (SR leukemia): 21 µM
- TGI (SW-620 colon): 65.3 µM
- TGI (T-47D breast): > 100 µM
- TGI (TK-10 renal): 94.2 µM
- TGI (U251 CNS): 68.5 µM
- TGI (UACC-257 melanoma): > 100 µM
- TGI (UACC-62 melanoma): 2.91 µM
- TGI (UO-31 renal): 67.3 µM

Compound: O=C1C=CC2(C=C1)O[C@H](COCc1ccccc1)[C@@H](COCc1ccccc1)O2
- TGI (786-0 renal): 2.22 µM
- TGI (A498 renal): 34.1 µM
- TGI (A549 NSCLC): 39 µM
- TGI (ACHN renal): 3.1 µM
- TGI (BT-549 breast): 2.37 µM
- TGI (CAKI-1 renal): 5.88 µM
- TGI (COLO 205 colon): 3.35 µM
- TGI (DU-145 prostate): 12.5 µM
- TGI (EKVX NSCLC): 3.66 µM
- TGI (HCT-116 colon): 0.582 µM
- TGI (HCT-15 colon): 2.99 µM
- TGI (HL-60(TB) leukemia): 6.4 µM
- TGI (HOP-62 NSCLC): 5.12 µM
- TGI (HOP-92 NSCLC): 2.64 µM
- TGI (HS 578T breast): 4.87 µM
- TGI (HT29 colon): 5.88 µM
- TGI (IGROV1 ovarian): 3.03 µM
- TGI (K-562 leukemia): > 100 µM
- TGI (KM12 colon): 14.3 µM
- TGI (LOX IMVI melanoma): 3.51 µM
- TGI (M14 melanoma): 3.88 µM
- TGI (MALME-3M melanoma): 6.48 µM
- TGI (MCF7 breast): 2.3 µM
- TGI (MDA-MB-231 breast): 12.8 µM
- TGI (MDA-MB-435): 5.51 µM
- TGI (MDA-N): 3.53 µM
- TGI (MOLT-4 leukemia): 15.1 µM
- TGI (NCI-H226 lung): 3.89 µM
- TGI (NCI-H23 lung): 4.29 µM
- TGI (NCI-H460 lung): 37.2 µM
- TGI (NCI/ADR-RES ovarian): 3.71 µM
- TGI (OVCAR-3 ovarian): 6.32 µM
- TGI (OVCAR-4 ovarian): 4.66 µM
- TGI (OVCAR-5 ovarian): 3.04 µM
- TGI (OVCAR-8 ovarian): 1.28 µM
- TGI (PC-3 prostate): 4.74 µM
- TGI (RPMI-8226 leukemia): 1.94 µM
- TGI (RXF 393 renal): 1.31 µM
- TGI (SF-268 CNS): 3.69 µM
- TGI (SF-295 CNS): 30.3 µM
- TGI (SF-539 CNS): 3.62 µM
- TGI (SK-MEL-2 melanoma): 3.46 µM
- TGI (SK-MEL-28 melanoma): 3.57 µM
- TGI (SK-MEL-5 melanoma): 3.22 µM
- TGI (SK-OV-3 ovarian): 29 µM
- TGI (SN12C renal): 3.6 µM
- TGI (SNB-19 CNS): 12.3 µM
- TGI (SNB-75 CNS): 13.4 µM
- TGI (SR leukemia): 0.849 µM
- TGI (SW-620 colon): 0.765 µM
- TGI (T-47D breast): 6.99 µM
- TGI (TK-10 renal): 4.17 µM
- TGI (U251 CNS): 4.02 µM
- TGI (UACC-257 melanoma): 3.56 µM
- TGI (UACC-62 melanoma): 3.99 µM
- TGI (UO-31 renal): 2.91 µM

Compound: COc1ccc2c(c1)/C(=C/c1c(O)[nH]c(=S)[nH]c1=O)C=N2
- TGI (786-0 renal): > 100 µM
- TGI (A498 renal): > 100 µM
- TGI (A549 NSCLC): > 100 µM
- TGI (ACHN renal): > 100 µM
- TGI (BT-549 breast): > 100 µM
- TGI (CAKI-1 renal): > 100 µM
- TGI (CCRF-CEM leukemia): > 100 µM
- TGI (COLO 205 colon): > 100 µM
- TGI (DU-145 prostate): > 100 µM
- TGI (EKVX NSCLC): > 100 µM
- TGI (HCC-2998 colon): > 100 µM
- TGI (HCT-116 colon): > 100 µM
- TGI (HCT-15 colon): > 100 µM
- TGI (HL-60(TB) leukemia): > 100 µM
- TGI (HOP-62 NSCLC): > 100 µM
- TGI (HOP-92 NSCLC): > 100 µM
- TGI (HS 578T breast): > 100 µM
- TGI (HT29 colon): > 100 µM
- TGI (IGROV1 ovarian): > 100 µM
- TGI (K-562 leukemia): > 100 µM
- TGI (KM12 colon): > 100 µM
- TGI (LOX IMVI melanoma): > 100 µM
- TGI (M14 melanoma): > 100 µM
- TGI (MALME-3M melanoma): > 100 µM
- TGI (MCF7 breast): > 100 µM
- TGI (MDA-MB-231 breast): > 100 µM
- TGI (MDA-MB-435): > 100 µM
- TGI (MDA-N): > 100 µM
- TGI (MOLT-4 leukemia): > 100 µM
- TGI (NCI-H226 lung): > 100 µM
- TGI (NCI-H23 lung): > 100 µM
- TGI (NCI-H460 lung): > 100 µM
- TGI (NCI-H522 lung): > 100 µM
- TGI (NCI/ADR-RES ovarian): > 100 µM
- TGI (OVCAR-3 ovarian): > 100 µM
- TGI (OVCAR-4 ovarian): > 100 µM
- TGI (OVCAR-5 ovarian): > 100 µM
- TGI (OVCAR-8 ovarian): > 100 µM
- TGI (PC-3 prostate): > 100 µM
- TGI (RXF 393 renal): 96.9 µM
- TGI (SF-268 CNS): 61.8 µM
- TGI (SF-295 CNS): > 100 µM
- TGI (SF-539 CNS): > 100 µM
- TGI (SK-MEL-2 melanoma): > 100 µM
- TGI (SK-MEL-28 melanoma): > 100 µM
- TGI (SK-MEL-5 melanoma): > 100 µM
- TGI (SK-OV-3 ovarian): > 100 µM
- TGI (SN12C renal): > 100 µM
- TGI (SNB-19 CNS): > 100 µM
- TGI (SNB-75 CNS): 49.9 µM
- TGI (SR leukemia): > 100 µM
- TGI (SW-620 colon): > 100 µM
- TGI (T-47D breast): > 100 µM
- TGI (TK-10 renal): > 100 µM
- TGI (U251 CNS): > 100 µM
- TGI (UACC-257 melanoma): > 100 µM
- TGI (UACC-62 melanoma): > 100 µM
- TGI (UO-31 renal): > 100 µM
